From ChEMBL document CHEMBL1137318, “Dipyridyl thiosemicarbazone chelators with potent and selective antitumor activity form iron complexes with redox activity” (J Med Chem, 2006)
The source made the active and inactive calls. The rule behind the calls is not given here.

How the values were obtained:
[1] = Increase in Fe(2+)-mediated hydroxyl radical production measured as hydroxylation of benzoate at IBE of 3 relative to control; format: functional
[2] = Increase in Fe(3+)-mediated ascorbate oxidation at IBE of 1 relative to control; format: functional
[3] = Increase in Fe(2+)-mediated hydroxyl radical production measured as hydroxylation of benzoate at IBE of 1 relative to control; format: functional
[4] = Increase in Fe(3+)-mediated ascorbate oxidation at IBE of 3 relative to control; format: functional
[5] = system: Nucleic Acid; assay: Binding affinity to DNA measured as hypochromicity of UV-vis spectra; format: nucleic-acid assay
[6] = Increase in Fe(3+)-mediated ascorbate oxidation at IBE of 0.1 relative to control; format: functional
[7] = system: SK-N-MC; assay: Antiproliferative activity against human SK-N-MC cells after 96 hrs by MTT assay; format: functional, cell-based
[8] = Inhibition of Fe(3+)-mediated ascorbate oxidation at IBE of 3 relative to control; format: functional; conditions: dose or concentration not given here
[9] = Inhibition of hydroxylation of benzoate in presence of Fe(II) at IBE of 1 relative to control; format: functional; conditions: dose or concentration not given here
[10] = Inhibition of Fe(3+)-mediated ascorbate oxidation at IBE of 0.1 relative to control; format: functional; conditions: dose or concentration not given here
[11] = Inhibition of Fe(3+)-mediated ascorbate oxidation at IBE of 1 relative to control; format: functional; conditions: dose or concentration not given here
[12] = Inhibition of hydroxylation of benzoate in presence of Fe(II) at IBE of 3 relative to control; format: functional; conditions: dose or concentration not given here

| IC50 [7] | Structure (SMILES) | Activity [1] | Activity [2] | Activity [4] | other results |
| --- | --- | --- | --- | --- | --- |
|  | O=C(O)CN(CCN(CC(=O)O)CC(=O)O)CC(=O)O | 343% | 475% | 482% | Activity [3]: 309% |
|  | COc1cccc2c1C(=O)c1c(O)c3c(c(O)c1C2=O)C[C@@](O)(C(=O)CO)C[C@@H]3O[C@H]1C[C@H](N)[C@H](O)[C@H](C)O1 |  |  |  | Activity [5]: 36% |
| 0.01 µM | CN(C)C(=S)NN=C(c1ccccn1)c1ccccn1 | Active | 439% | 406% | Activity [6]: Active |
| 8.58 µM | CC(=O)N(O)CCCCCNC(=O)CCC(=O)N(O)CCCCCNC(=O)CCC(=O)N(O)CCCCCN [DEFEROXAMINE] |  |  |  | inhibition [8]: 59%; inhibition [9]: 56%; inhibition [10]: 79%; inhibition [11]: 60%; inhibition [12]: 56% |
